Assay results taken from patent US10723741B1, “DNA polymerase IIIC inhibitors and use thereof” (Acurx Pharmaceuticals, LLC, priority 2018, dated 2020).
In brackets after ≈: the same amount, converted by molar mass. Structures can show the parent of a compound that is named as a salt. Where two headings read alike, the source gives them in different places.

Key:
Assay type in all cases: cell-based
[1] = tested on: Escherichia coli ATCC 25922; experiment: Broth microdilution MIC, E. coli ATCC 25922 (MHIIB w & w/o 4 mM EDTA); settings: for MIC: Escherichia coli, read-out: MIC E. coli ATCC 25922; for MIC E. coli ATCC 25922 + 4 mM EDTA: with 4 mM EDTA
In short: (§1)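 Broth microdilution in strain-specific test medium with ~5.0×10^5 cfu/ml inoculum, 1% DMSO and two-fold compound dilutions from 64 to 0.0625 μg/ml. Plates were held 20 hours at 37° C in ambient air. S. pneumoniae colonies were grown beforehand on blood agar in 5% CO2.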

[2] = tested on: Streptococcus pneumoniae ATCC 49619; experiment: Broth microdilution MIC, S. pneumoniae ATCC 49619; settings: read-out: MIC S. pneumoniae ATCC 49619
In short: as §1

[3] = tested on: Staphylococcus aureus ATCC 29213 (MSSA); experiment: Broth microdilution MIC, S. aureus ATCC 29213 (MSSA); settings: read-out: MIC S. aureus ATCC 29213 (MSSA)
In short: as §1

[4] = tested on: Staphylococcus aureus NRS384 (MRSA); experiment: Broth microdilution MIC, S. aureus NRS384 (MRSA); settings: Staphylococcus aureus
In short: as §1

[5] = tested on: Enterococcus faecalis ATCC 29212; experiment: Broth microdilution MIC, E. faecalis ATCC 29212; settings: read-out: MIC E. faecalis ATCC 29212
In short: as §1

[6] = tested on: Enterococcus faecium ATCC 700221 (VRE); experiment: Broth microdilution MIC, E. faecium ATCC 700221 (VRE); settings: Enterococcus faecium
In short: as §1

[7] = tested on: Bacillus subtilis ATCC 6633; experiment: Broth microdilution MIC, B. subtilis ATCC 6633; settings: read-out: MIC B. subtilis ATCC 6633
In short: as §1

[8] = ATCC25922, without EDTA, broth microdilution, 37° C., 20 hours
[9] = broth microdilution, 37° C., 20 hours
[10] = ATCC49619, broth microdilution, 37° C., 20 hours
[11] = broth microdilution, 37° C., 20 hours, read-out: MIC NRS 384 (MRSA)
[12] = ATCC29212, broth microdilution, 37° C., 20 hours
[13] = broth microdilution, 37° C., 20 hours, read-out: MIC E. faecium ATCC 700221 (VRE)
[14] = ATCC6633, broth microdilution, 37° C., 20 hours
[15] = 20 h, read-out: MIC NRS 384 (MRSA)
[16] = 20 h, read-out: MIC E. faecium ATCC 700221 (VRE)

Row | MIC [1, 8] [µg/mL] | MIC E. coli ATCC 25922 + 4 mM EDTA [1, 9] [µg/mL] | MIC [2, 10] [µg/mL] | MIC [3, 9] [µg/mL] | MIC [4, 11] [µg/mL] | MIC [5, 12] [µg/mL] | MIC [6, 13] [µg/mL] | MIC [7, 14] [µg/mL] | MIC ([4]; broth microdilution, MHIIB, 37° C., 20 hours, read-out: MIC against S. aureus NRS 384 (MRSA)) [µg/mL] | MIC ([6]; broth microdilution, MHIIB, 37° C., 20 hours, read-out: MIC against E. faecium ATCC 700221 (VRE)) [µg/mL] | SMILES | MIC ([1]; ATCC25922, 20 h) [µg/mL] | MIC ([2]; ATCC49619, 20 h) [µg/mL] | MIC ([3]; 20 h) [µg/mL] | MIC [4, 15] [µg/mL] | MIC ([5]; ATCC29212, 20 h) [µg/mL] | MIC [6, 16] [µg/mL] | MIC ([7]; ATCC6633, 20 h) [µg/mL]
1 | > 64 | >64 | 32 (≈ 80.8 µM) | > 64 | > 64 | > 64 | > 64 | > 64 |  |  | COC(=O)C(C)n1cc2nc(NCc3ccc(Cl)c(Cl)c3)[nH]c(=O)c2n1 (stereo not shown) [Compound 224, Methyl 2-(5-((3,4-dichlorobenzyl)amino)-7-oxo-6,7-dihydro-2H-pyrazolo[4,3-d]pyrimidin-2-yl)propanoate] |  |  |  |  |  |  | 
2 | > 64 | >64 | 16 (≈ 43.5 µM) | 64 (≈ 174 µM) | 64 (≈ 174 µM) | 64 (≈ 174 µM) | 32 (≈ 86.9 µM) | 32 (≈ 86.9 µM) |  |  | CC(CO)n1cc2nc(NCc3ccc(Cl)c(Cl)c3)[nH]c(=O)c2n1 (stereo not shown) [Compound 225, 5-((3,4-dichlorobenzyl)amino)-2-(1-hydroxypropan-2-yl)-2H-pyrazolo[4,3-d]pyrimidin-7(6H)-one] |  |  |  |  |  |  | 
3 | > 64 | >64 | > 64 | > 64 | 64 (≈ 167 µM) | > 64 | 64 (≈ 167 µM) | 64 (≈ 167 µM) |  |  | CC(C(=O)O)n1ncc2nc(NCc3ccc(Cl)c(Cl)c3)[nH]c(=O)c21 (stereo not shown) [Compound 226, 2-(5-((3,4-dichlorobenzyl)amino)-7-oxo-6,7-dihydro-1H-pyrazolo[4,3-d]pyrimidin-1-yl)propanoic acid] |  |  |  |  |  |  | 
4 | > 64 | 32 | 16 (≈ 40.4 µM) | 8 (≈ 20.2 µM) | 8 (≈ 20.2 µM) | 16 (≈ 40.4 µM) | 4 (≈ 10.1 µM) | 4 (≈ 10.1 µM) |  |  | COC(=O)C(C)n1ncc2nc(NCc3ccc(Cl)c(Cl)c3)[nH]c(=O)c21 (stereo not shown) [Compound 227, Methyl 2-(5-((3,4-dichlorobenzyl)amino)-7-oxo-6,7-dihydro-1H-pyrazolo[4,3-d]pyrimidin-1-yl)propanoate] |  |  |  |  |  |  | 
5 | > 64 | 64 | 8 (≈ 21.7 µM) | 16 (≈ 43.5 µM) | 8 (≈ 21.7 µM) | 16 (≈ 43.5 µM) | 8 (≈ 21.7 µM) | 4 (≈ 10.9 µM) |  |  | CC(CO)n1ncc2nc(NCc3ccc(Cl)c(Cl)c3)[nH]c(=O)c21 (stereo not shown) [Compound 228, 5-((3,4-dichlorobenzyl)amino)-1-(1-hydroxypropan-2-yl)-1H-pyrazolo[4,3-d]pyrimidin-7(6H)-one] |  |  |  |  |  |  | 
6 | > 64 | >64 | 16 (≈ 41.9 µM) | > 64 | > 64 | 64 (≈ 167 µM) | 64 (≈ 167 µM) | > 64 |  |  | O=C(O)CCn1ncc2nc(NCc3ccc(Cl)c(Cl)c3)[nH]c(=O)c21 [Compound 229, 3-(5-((3,4-dichlorobenzyl)amino)-7-oxo-6,7-dihydro-1H-pyrazolo[4,3-d]pyrimidin-1-yl)propanoic Acid] |  |  |  |  |  |  | 
7 | > 64 | 64 | 32 (≈ 83.7 µM) | > 64 | 64 (≈ 167 µM) | 64 (≈ 167 µM) | 64 (≈ 167 µM) | 64 (≈ 167 µM) |  |  | O=C(O)CCn1cc2nc(NCc3ccc(Cl)c(Cl)c3)[nH]c(=O)c2n1 [Compound 230, 3-(5-((3,4-Dichlorobenzyl)amino)-7-oxo-6,7-dihydro-2H-pyrazolo[4,3-d]pyrimidin-2-yl)propanoic acid] |  |  |  |  |  |  | 

Further lines, the compound ahead of its results:

Row | SMILES | MIC [1, 8] [µg/mL] | MIC E. coli ATCC 25922 + 4 mM EDTA [1, 9] [µg/mL] | MIC [2, 10] [µg/mL] | MIC [3, 9] [µg/mL] | MIC [4, 11] [µg/mL] | MIC [5, 12] [µg/mL] | MIC [6, 13] [µg/mL] | MIC [7, 14] [µg/mL] | MIC ([4]; broth microdilution, MHIIB, 37° C., 20 hours, read-out: MIC against S. aureus NRS 384 (MRSA)) [µg/mL] | MIC ([6]; broth microdilution, MHIIB, 37° C., 20 hours, read-out: MIC against E. faecium ATCC 700221 (VRE)) [µg/mL] | MIC ([1]; ATCC25922, 20 h) [µg/mL] | MIC ([2]; ATCC49619, 20 h) [µg/mL] | MIC ([3]; 20 h) [µg/mL] | MIC [4, 15] [µg/mL] | MIC ([5]; ATCC29212, 20 h) [µg/mL] | MIC [6, 16] [µg/mL] | MIC ([7]; ATCC6633, 20 h) [µg/mL]
8 | O=C(O)CCCCn1nc(F)c2nc(NCc3ccc(F)c(F)c3)[nH]c(=O)c21 [Compound 210, 5-(5-((3,4-Difluorobenzyl)amino)-3-fluoro-7-oxo-6,7-dihydro-1H-pyrazolo[4,3-d]pyrimidin-1-yl)pentanoic acid] | > 64 | >64 | 16 (≈ 40.5 µM) | 32 (≈ 80.9 µM) | 64 (≈ 162 µM) | 32 (≈ 80.9 µM) | 16 (≈ 40.5 µM) | 64 (≈ 162 µM) |  |  |  |  |  |  |  |  | 
9 | O=c1[nH]c(NCc2ccc(Cl)c(Cl)c2)nc2cn(C3CCNC3)nc12 (stereo not shown) [Compound 215, 5-((3,4-Dichlorobenzyl)amino)-2-(pyrrolidin-3-yl)-2H-pyrazolo[4,3-d]pyrimidin-7(6H)-one TFA salt] |  | 64 |  |  |  |  |  |  |  |  | > 64 | 16 | > 64 | > 64 | > 64 | > 64 | 64
10 | O=c1[nH]c(NCc2ccc(Cl)c(Cl)c2)nc2cnn(C3CCNC3)c12 (stereo not shown) [Compound 216, 5-((3,4-dichlorobenzyl)amino)-1-(pyrrolidin-3-yl)-1H-pyrazolo[4,3-d]pyrimidin-7(6H)-one TFA salt] |  | >64 |  |  |  |  |  |  |  |  | > 64 | 4 | 16 | 16 | 16 | 16 | 4
11 | O=C(CCCCn1ncc2nc(NCc3ccc(Cl)c(Cl)c3)[nH]c(=O)c21)NO [Compound 217, 5-[5-[(3,4-dichlorophenyl)methylamino]-7-oxo-6H-pyrazolo[4,3-d]pyrimidin-1-yl]pentanehydroxamic acid] | > 64 | >64 | 4 (≈ 9.41 µM) | 32 (≈ 75.2 µM) | 32 (≈ 75.2 µM) | 16 (≈ 37.6 µM) | 16 (≈ 37.6 µM) | 8 (≈ 18.8 µM) |  |  |  |  |  |  |  |  | 
12 | O=C(O)CCCCn1ncc2nc(NCc3ccc(Cl)c(Cl)c3)[nH]c(=O)c21 [Compound 219, 5-[5-[(3,4-dichlorophenyl)methylamino]-7-oxo-6H-pyrazolo[4,3-d]pyrimidin-1-yl]pentanoic Acid] | > 64 | >64 | 4 (≈ 9.75 µM) | 32 (≈ 78 µM) | 16 (≈ 39 µM) | 16 (≈ 39 µM) | 4 (≈ 9.75 µM) | 32 (≈ 78 µM) |  |  |  |  |  |  |  |  | 
13 | CS(=O)(=O)CCOCCn1ncc2nc(NCc3ccc(Cl)c(Cl)c3)[nH]c(=O)c21 [Compound 220, 5-((3,4-dichlorobenzyl)amino)-1-(2-(2-(methylsulfonyl)ethoxy)ethyl)-1H-pyrazolo[4,3-d]pyrimidin-7(6H)-one] | > 64 | >64 | 2 (≈ 4.34 µM) | 8 (≈ 17.4 µM) | 16 (≈ 34.8 µM) | 8 (≈ 17.4 µM) | 2 (≈ 4.34 µM) | 4 (≈ 8.69 µM) |  |  |  |  |  |  |  |  | 
14 | O=c1[nH]c(NCc2ccc(Cl)c(Cl)c2)nc2cnn(CCCc3nnn[nH]3)c12 [Compound 221, 1-(3-(1H-tetrazol-5-yl)propyl)-5-((3,4-dichlorobenzyl)amino)-1H-pyrazolo[4,3-d]pyrimidin-7(6H)-one] | > 64 | >64 | 64 (≈ 152 µM) | > 64 | > 64 | > 64 | 32 (≈ 76.1 µM) | > 64 |  |  |  |  |  |  |  |  | 
15 | O=c1[nH]c(NCc2ccc(Cl)c(Cl)c2)nc2cnn(-c3ccncc3)c12 [Compound 222, 5-[(3,4-dichlorophenyl)methylamino]-1-(4-pyridyl)-6H-pyrazolo[4,3-d]pyrimidin-7-one] | > 64 | 64 | 2 (≈ 5.16 µM) | 2 (≈ 5.16 µM) | 1 (≈ 2.58 µM) | 4 (≈ 10.3 µM) | 2 (≈ 5.16 µM) | 1 (≈ 2.58 µM) | ≤ 1 | ≤ 1 |  |  |  |  |  |  | 
16 | CC(C(=O)O)n1cc2nc(NCc3ccc(Cl)c(Cl)c3)[nH]c(=O)c2n1 (stereo not shown) [Compound 223, 2-(5-((3,4-dichlorobenzyl)amino)-7-oxo-6,7-dihydro-2H-pyrazolo[4,3-d]pyrimidin-2-yl)propanoic acid] | > 64 | >64 | > 64 | > 64 | > 64 | > 64 | > 64 | > 64 |  |  |  |  |  |  |  |  | 
